Molecules are shown by their SMILES. pIC50: −log10 of the molar value. Counter-ions that a name gives are not always drawn.

Test [1] addresses PI3Kγ (p110γ) Recombinant Human Protein (Homo sapiens (Human), UniProt P48736). The experiment in a line: PI3K-γ Scintillation Proximity Assay. In kind it is biochemical. As to conditions: read-out: PI3Kγ IC50. The procedure, abridged: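 Recombinant human p110γ assayed at room temperature in 20 mM MOPS pH 6.7, 10 mM MgCl2, 5 mM DTT, 0.03% CHAPS, 2% DMSO, with 20 μM PIP2 and 2 μM ATP plus [γ-33P]ATP. Product captured on WGA SPA beads overnight and counted; IC50 fitted from % of solvent-control activity versus log inhibitor concentration.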
In general terms: In a scintillation proximity assay essentially only radioactivity close to the scintillant gives light.

The target of test [2] is PI3Kδ (p110δ/p85α) Recombinant Human Protein (Homo sapiens (Human), UniProt O00329). The experiment in a line: PI3Kδ Scintillation Proximity Assay. In kind it is biochemical. The procedure, abridged: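 Kinase reaction run at room temperature in 20 mM MOPS pH 6.7, 10 mM MgCl2, 5 mM DTT, 0.03% CHAPS with 20 μM PIP2, 2 μM ATP plus [γ-33P]ATP, 3.4 nM enzyme, 2% DMSO; 120 min. Quenched with WGA SPA beads/EDTA, counted by scintillation; IC50 from % solvent-control activity vs log concentration.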
PI3Kδ (p110δ/p85α) Recombinant Human Protein, sequence (O00329 whole entry): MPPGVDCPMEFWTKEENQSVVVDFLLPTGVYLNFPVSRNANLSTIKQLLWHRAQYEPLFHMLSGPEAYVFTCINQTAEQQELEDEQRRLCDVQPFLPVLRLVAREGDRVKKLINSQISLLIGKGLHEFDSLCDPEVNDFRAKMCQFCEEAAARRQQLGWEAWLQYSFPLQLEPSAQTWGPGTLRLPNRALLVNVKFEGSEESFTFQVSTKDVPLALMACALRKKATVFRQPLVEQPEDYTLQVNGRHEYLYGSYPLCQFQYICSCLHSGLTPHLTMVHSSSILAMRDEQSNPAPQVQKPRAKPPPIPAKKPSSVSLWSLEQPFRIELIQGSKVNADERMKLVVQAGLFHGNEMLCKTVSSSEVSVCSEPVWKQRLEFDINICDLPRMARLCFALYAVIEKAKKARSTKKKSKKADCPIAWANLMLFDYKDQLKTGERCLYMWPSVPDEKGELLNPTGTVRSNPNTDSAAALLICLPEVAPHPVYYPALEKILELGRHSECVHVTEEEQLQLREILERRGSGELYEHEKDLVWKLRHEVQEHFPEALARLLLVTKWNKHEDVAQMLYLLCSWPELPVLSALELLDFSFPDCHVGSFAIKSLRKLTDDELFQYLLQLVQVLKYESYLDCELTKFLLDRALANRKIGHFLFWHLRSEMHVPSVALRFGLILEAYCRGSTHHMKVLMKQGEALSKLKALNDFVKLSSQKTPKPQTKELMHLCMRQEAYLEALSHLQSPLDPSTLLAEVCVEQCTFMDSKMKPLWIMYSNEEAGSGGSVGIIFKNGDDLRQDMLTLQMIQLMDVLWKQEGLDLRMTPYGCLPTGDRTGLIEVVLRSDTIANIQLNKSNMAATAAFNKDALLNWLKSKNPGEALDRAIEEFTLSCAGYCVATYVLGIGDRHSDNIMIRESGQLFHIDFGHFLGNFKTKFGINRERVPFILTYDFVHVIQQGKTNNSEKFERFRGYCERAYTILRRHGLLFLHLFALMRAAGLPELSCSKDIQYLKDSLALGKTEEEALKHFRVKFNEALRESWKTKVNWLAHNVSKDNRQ
PI3Kδ (p110δ/p85α) Recombinant Human Protein, sequence (P27986 whole entry partner): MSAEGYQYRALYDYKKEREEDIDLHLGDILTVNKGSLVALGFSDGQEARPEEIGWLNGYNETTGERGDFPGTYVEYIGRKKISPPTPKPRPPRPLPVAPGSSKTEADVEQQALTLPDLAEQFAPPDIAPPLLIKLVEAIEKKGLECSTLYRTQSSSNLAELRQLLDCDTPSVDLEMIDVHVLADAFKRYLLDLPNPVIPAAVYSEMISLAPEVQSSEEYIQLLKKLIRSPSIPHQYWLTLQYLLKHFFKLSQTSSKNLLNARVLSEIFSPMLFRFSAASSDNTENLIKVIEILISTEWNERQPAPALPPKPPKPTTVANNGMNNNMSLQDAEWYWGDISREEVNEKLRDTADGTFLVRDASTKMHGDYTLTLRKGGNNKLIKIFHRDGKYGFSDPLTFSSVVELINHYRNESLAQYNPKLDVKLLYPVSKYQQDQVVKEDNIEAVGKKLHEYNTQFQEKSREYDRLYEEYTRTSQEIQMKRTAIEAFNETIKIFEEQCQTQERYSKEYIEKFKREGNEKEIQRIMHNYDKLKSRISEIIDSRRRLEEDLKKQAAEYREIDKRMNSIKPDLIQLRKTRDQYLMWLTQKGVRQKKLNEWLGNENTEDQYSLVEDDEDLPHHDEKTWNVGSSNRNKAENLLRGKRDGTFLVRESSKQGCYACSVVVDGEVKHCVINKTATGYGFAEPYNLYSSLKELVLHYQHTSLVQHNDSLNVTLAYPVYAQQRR

PI3Kγ (p110γ) Recombinant Human Protein, sequence (P48736 whole entry): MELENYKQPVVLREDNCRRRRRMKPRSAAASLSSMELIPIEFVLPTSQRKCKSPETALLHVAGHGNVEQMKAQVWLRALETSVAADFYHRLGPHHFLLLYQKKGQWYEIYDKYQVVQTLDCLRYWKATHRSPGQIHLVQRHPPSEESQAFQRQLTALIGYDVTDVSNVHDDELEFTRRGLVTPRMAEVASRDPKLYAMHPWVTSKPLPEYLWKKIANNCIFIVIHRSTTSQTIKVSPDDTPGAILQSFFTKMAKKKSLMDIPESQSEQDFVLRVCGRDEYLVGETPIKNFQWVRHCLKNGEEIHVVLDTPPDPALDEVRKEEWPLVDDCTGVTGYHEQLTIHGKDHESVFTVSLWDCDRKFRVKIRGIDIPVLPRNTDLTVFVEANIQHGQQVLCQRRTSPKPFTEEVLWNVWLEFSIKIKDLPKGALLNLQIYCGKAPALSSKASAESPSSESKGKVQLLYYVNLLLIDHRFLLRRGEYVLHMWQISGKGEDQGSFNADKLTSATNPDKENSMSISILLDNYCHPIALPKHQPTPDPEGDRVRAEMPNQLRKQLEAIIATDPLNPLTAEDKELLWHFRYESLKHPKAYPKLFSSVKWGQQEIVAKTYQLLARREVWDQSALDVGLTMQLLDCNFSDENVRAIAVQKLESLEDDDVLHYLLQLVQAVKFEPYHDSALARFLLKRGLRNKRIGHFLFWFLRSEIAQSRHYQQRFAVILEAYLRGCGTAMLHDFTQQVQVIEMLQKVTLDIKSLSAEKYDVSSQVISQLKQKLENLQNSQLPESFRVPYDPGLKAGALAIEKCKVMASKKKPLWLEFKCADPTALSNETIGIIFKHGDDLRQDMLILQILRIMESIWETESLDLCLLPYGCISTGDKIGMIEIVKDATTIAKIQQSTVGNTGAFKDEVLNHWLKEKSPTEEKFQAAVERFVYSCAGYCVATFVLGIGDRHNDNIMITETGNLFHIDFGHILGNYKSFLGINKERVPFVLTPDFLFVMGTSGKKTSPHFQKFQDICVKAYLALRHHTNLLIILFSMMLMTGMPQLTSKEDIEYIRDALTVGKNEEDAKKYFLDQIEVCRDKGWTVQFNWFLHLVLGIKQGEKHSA

Turning to `Cc1ccc(S(=O)(=O)N2CC(C3COC3)C2)cc1-c1cnc2c(N)ncnn12` [Example 153, 7-(2-methyl-5-((3-(oxetan-3-yl)azetidin-1-yl)sulfonyl)phenyl)imidazo[2,1-f][1,2,4]triazin-4-amine], the pIC50 was above 7.00 in test [1] and 5.70 to 6.30 in test [2].
For `CCN(CC1CCCO1)S(=O)(=O)c1ccc(C)c(-c2cnc3c(N)ncnn23)c1` (stereo not shown) [Example 179, 3-(4-aminoimidazo[2,1-f][1,2,4]triazin-7-yl)-N-ethyl-4-methyl-N-((tetrahydrofuran-2-yl)methyl)benzenesulfonamide], in that order: above 7.00 and 5.70 to 6.30.
For the molecule `Cc1ccc(S(=O)(=O)N2CCC(O)CC2)cc1-c1cnc2c(N)ncnn12` [Example 66, 1-{[3-(4-Aminoimidazo[2,1-f][1,2,4]triazin-7-yl)-4-methylphenyl]sulfonyl}piperidin-4-ol], the pIC50 in test [1] was 6.30 to 7.00; in test [2] it was below 5.70.
For `Cc1ccc(S(C)(=O)=O)cc1-c1cnc2c(N)nc(C(=O)NCCCn3cccn3)cn12` [Example 457, N-(3-(1H-pyrazol-1-yl)propyl)-8-amino-3-(2-methyl-5-(methylsulfonyl)phenyl)imidazo[1,2-a]pyrazine-6-carboxamide trifluoroacetate salt], in that order: 6.30 to 7.00 and 6.30 to 7.00.
Consider `Cc1ccc(S(C)(=O)=O)cc1-c1cnc2c(N)nc(-c3ccccc3F)cn12` [Example 40, 6-(2-Fluorophenyl)-3-[2-methyl-5-(methylsulfonyl)phenyl]imidazo[1,2-a]pyrazin-8-amine trifluoroacetate], for which the values for the pIC50 in test [1] and in test [2] were above 7.00 and 6.30 to 7.00, respectively.
As to `Cc1ccc(S(=O)(=O)N2CC3C(O)C2CN3C2CCC(C#N)C2)cc1-c1cnc2c(N)nc(C(F)(F)F)nn12` (stereo not shown) [Example 351, 3-(5-((3-(4-amino-2-(trifluoromethyl)imidazo[2,1-f][1,2,4]triazin-7-yl)-4-methylphenyl)sulfonyl)-7-hydroxy-2,5-diazabicyclo[2.2.1]heptan-2-yl)cyclopentane-1-carbonitrile], the values for the pIC50 in test [1] and in test [2] were above 7.00 and 5.70 to 6.30, respectively.
In the case of `Cc1ccc(S(=O)(=O)N2CC3C(O)C2CN3C)cc1-c1cnc2c(N)nc(C(F)(F)F)nn12` (stereo not shown) [Example 352, 2-((3-(4-amino-2-(trifluoromethyl)imidazo[2,1-f][1,2,4]triazin-7-yl)-4-methylphenyl)sulfonyl)-5-methyl-2,5-diazabicyclo[2.2.1]heptan-7-ol], the pIC50 was above 7.00 in test [1] and 5.70 to 6.30 in test [2].
For the molecule `Cc1ccc(S(=O)(=O)N2CC[C@@H](C#N)C2)cc1-c1cnc2c(N)ncnn12` [Example 150, (R)-1-((3-(4-aminoimidazo[2,1-f][1,2,4]triazin-7-yl)-4-methylphenyl)sulfonyl)pyrrolidine-3-carbonitrile], the pIC50 in test [1] is above 7.00; in test [2] it was 5.70 to 6.30.
The corresponding values for `Cc1ccc(S(=O)(=O)N2CCN3C(=O)OC[C@H]3C2)cc1-c1cnc2c(N)ncnn12` [Example 174, (R)-7-((3-(4-aminoimidazo[2,1-f][1,2,4]triazin-7-yl)-4-methylphenyl)sulfonyl)hexahydro-3H-oxazolo[3,4-a]pyrazin-3-one] are 6.30 to 7.00 and below 5.70.
The corresponding values for `Cc1ccc(S(=O)(=O)N2C[C@H](O)[C@@H](N3CCN(C)CC3)C2)cc1-c1cnc2c(N)ncnn12` [Example 167, (3S,4S)-1-((3-(4-aminoimidazo[2,1-f][1,2,4]triazin-7-yl)-4-methylphenyl)sulfonyl)-4-(4-methylpiperazin-1-yl)pyrrolidin-3-ol] are 6.30 to 7.00 and below 5.70.
Turning to `CCOc1ncc(-c2cnc3c(N)cc(Cl)cn23)cc1NS(=O)(=O)CC` [Example 7, N-[5-(8-Amino-6-chloroimidazo[1,2-a]pyridin-3-yl)-2-ethoxypyridin-3-yl]ethanesulfonamide bis(trifluoroacetate)], the results for the pIC50 in test [1] and in test [2] were 6.30 to 7.00 and 5.70 to 6.30, respectively.

By pIC50 is commonly meant the IC50 on a negative log10 scale, so that one unit is a factor of ten.

Source of the values: patent US10479795B2 (Incyte Corporation, priority 2016, dated 2019).
